Results published in US20230172894A1, “COMBINATION TREATMENT FOR FUMARATE-RELATED DISEASES” (IMCYSE SA, priority 2020, published 2023).
Read-outs that look alike come from different tables or passages of the source. No end group written: not given here.

Legend:
[1] = system: experimental auto-immune encephalomyelitis (EAE) development in mice; conditions: Example 4; 16 mice per group
Description: Example 4: Effect of the therapeutic administration of an immunogenic peptide comprising a human MOG201-212 MHCII T cell epitope linked to a KHCPYC oxidoreductase motif in combination with dimethyl fumarate (BG-12, […]™) on experimental auto-immune encephalomyelitis (EAE) development in mice.
The study used a total of 96 female C57BL/6 mice (Taconic Biosciences, 9 weeks old on Day 0). Mice were acclimated for 7 days prior to the first injection. Mice were assigned to groups in a balanced manner to achieve similar average weight across the groups at the start of the study.
Treatment 1 was administered once on each of the days indicated in Table 5, s.c., at a volume of 0.05 mL/site, each mouse receiving injection at two sites, for a total of 0.1 mL/mouse/dosing day. IMCY-0189 or P4 peptide total dose was 30 μg per administration.
(§1) BG-12 was dosed at 100 mg/kg.
(§2) All dosing were done at the same time (+/−1 hour) each dosing day. For the BID groups there were no less than 10 and no more than 14 hours between doses.
Lyophilized immunogenic peptide P4 with the sequence […] (SEQ ID NO: 176), comprising an oxidoreductase motif KHCPYC (SEQ ID NO: 77), a linker VRY, a human Myelin Oligodendrocyte Glycoprotein (MOG201-212) MHCII T cell epitope […] (SEQ ID NO: 165) and a flanking sequence TLFKK (SEQ ID NO: 267) (Smart Bioscience) was solubilized immediately before use. Lyophilized P4 was thawed at room temperature for 10 minutes, resuspended in Na Acetate buffer 50 mM NaCl 0.9% pH 5.4 and incubated at room temperature for 10 minutes. Reconstituted peptide was then mixed with Imject™ Alum Adjuvant before injection.
(§3) Treatment 2 was prepared as described in example 2.
EAE induction, scoring and statistical analysis were performed as described in example 2.
(§4) EAE development was evaluated by comparing clinical EAE readouts for all groups to the negative control (Saline/Vehicle) group.

[2] = system: experimental auto-immune encephalomyelitis (EAE) development in mice; conditions: Example 3; for mice died in group: 16 mice per group; for disease onset: peptide 30 μg/Alum s.c. days 4, 9, 14, 19, BG-12 100 mg/kg p.o. BID days 0 to 27; for disease onset / AUC (area under the curve) of EAE scores / MMS (mean maximal score) / end score (clinical EAE score 0-5): vs negative control
Description: Example 3: Effect of the therapeutic administration of an immunogenic peptide comprising a MOG35-55 MHCII T cell epitope linked to a KCRC (SEQ ID NO: 65) or KCRPYC (SEQ ID NO: 84) oxidoreductase motif in combination with dimethyl fumarate (BG-12, […]™) on experimental auto-immune encephalomyelitis (EAE) development in mice.
The study used a total of 128 female C57BL/6 mice (Taconic Biosciences, 9 weeks old on Day 0). Mice were acclimated for 7 days prior to the first injection. Mice were assigned to groups in a balanced manner to achieve similar average weight across the groups at the start of the study.
Treatment 1 was administered once on each of the days indicated in Table 4, s.c., at a volume of 0.05 mL/site, each mouse receiving injection at two sites, for a total of 0.1 mL/mouse/dosing day. IMCY-0189 (CXXC oxidoreductase motif, IMCY-0453 (CXC oxidoreductase motif) or IMCY-0455 (CXXXC oxidoreductase motif) peptide total dose was 30 μg per administration.
as §1, §2
(SEQ ID NO: 266), comprising an oxidoreductase motif KCRC (SEQ ID NO: 65), a linker GW, a murine Myelin Oligodendrocyte Glycoprotein (MOG35-55) MHCII T cell epitope […] (SEQ ID NO: 169) and a flanking sequence HLYR (SEQ ID NO: 186) (Smart Bioscience) was solubilized immediately before use. Lyophilized IMCY-0453 was thawed at room temperature for 10 minutes, resuspended in Na Acetate buffer 50 mM NaCl 0.9% pH 5.4 and incubated at room temperature for 10 minutes. Reconstituted peptide was then mixed with Imject™ Alum Adjuvant before injection.
(SEQ ID NO: 268), comprising an oxidoreductase motif KCRPYC (SEQ ID NO: 84), a linker GW, a murine Myelin Oligodendrocyte Glycoprotein (MOG35-55) MHCII T cell epitope […] (SEQ ID NO: 169) and a flanking sequence HLYR (SEQ ID NO: 186) (Smart Bioscience) was solubilized immediately before use. Lyophilized IMCY-0455 was thawed at room temperature for 10 minutes, resuspended in Na Acetate buffer 50 mM NaCl 0.9% pH 5.4 and incubated at room temperature for 10 minutes. Reconstituted peptide was then mixed with Imject™ Alum Adjuvant before injection.
as §3
EAE induction, scoring and statistical analysis were performed as described in example
as §4

[3] = system: experimental auto-immune encephalomyelitis (EAE) development in mice; assay: Example 3: serum neurofilament light (NF-L) levels in EAE mice; format: in vivo, female C57BL/6 mice; conditions: Day 28 serum, vs negative control
Experimental: On Day 28, blood was collected from all mice into gel clot activator tubes and allowed to clot at room temperature for ˜30 minutes. Blood is then centrifuged at ˜10000 g for 5 minutes. Serum was transferred into Eppendorf tubes and stored at −80° C. until shipment to Quanterix™. Serum Neurofilament light (NF-L) protein levels were quantified using Simoa® NF-light Advantage kit as described in example 1.

[4] = system: experimental auto-immune encephalomyelitis (EAE) development in mice; conditions: Example 2, 16 mice per group
Description: Example 2: Effect of the therapeutic administration of an immunogenic peptide comprising a MOG35-55 MHCII T cell epitope linked or not to an HCPYC oxidoreductase motif in combination with dimethyl fumarate (BG-12, […]™) on experimental auto-immune encephalomyelitis (EAE) development in mice.
The study used a total of 96 female C57BL/6 mice (Taconic Biosciences, 10 weeks old on Day 0). Mice were acclimated for 14 days prior to the first injection. Mice were assigned to groups in a balanced manner to achieve similar average weight across the groups at the start of the study.
Treatment 1 was administered once on each of the days indicated in Table 3, s.c., at a volume of 0.05 mL/site, each mouse receiving injection at two sites, for a total of 0.1 mL/mouse/dosing day. IMCY-0189 or MOG35-55 peptide total dose was 30 μg per administration.
as §1, §2
Lyophilized mouse MOG35-55 peptide with the sequence […] (SEQ ID NO:205), comprising the mouse Myelin Oligodendrocyte Glycoprotein (MOG35-55) MHCII T cell epitope […] (SEQ ID NO:169), was solubilized immediately before use. Lyophilized MOG35-55 peptide was thawed at room temperature for 10 minutes, resuspended in Na Acetate buffer 50 mM NaCl 0.9% pH 5.4 and incubated at room temperature for 10 minutes. Reconstituted MOG35-55 peptide was then mixed with Imject™ Alum Adjuvant before injection. Note that the positions 35 to 55 refer to the mature protein, i.e. after cleavage of the signal peptide (AA 1-29), defined by SEQ ID NO: 208. In the full-length amino acid sequence of MOG (SEQ ID NO: 184), said peptide would be at positions 64-84.
Lyophilized IMCY-0189 was thawed at room temperature for 10 minutes, resuspended in Na Acetate buffer 50 mM NaCl 0.9% pH 5.4 and incubated at room temperature for 10 minutes. Reconstituted peptide was then mixed with Imject™ Alum Adjuvant before injection.
For Treatment 2, vehicle was 0.5% HPMC, 0.2% Tween 20, and 50 mM citrate buffer at pH 4. BG-12 (Santa Cruz Biotechnology, sc-239774) and was prepared at least every 2 weeks. At each preparation the required amount of BG-12 was weighed out into a mortar and triturated with a pestle. Vehicle was then added in small increments and mixed until the final volume was reached. The material was then vortexed and sonicated in a water bath until a homogeneous suspension was obtained. Formulated BG-12 was stored at 4° C., stirring continuously.
EAE induction, scoring and statistical analysis were performed as described in example 1.
as §4

Row | Compound | mice died in group [1] | mice died in group [2] | disease onset [2] | AUC (area under the curve) of EAE scores [2] | MMS (mean maximal score) [2] | end score (clinical EAE score 0-5) [2] | serum NF-L levels [3] | mice died in group [4] | mice died in group ([4]; listed as MOG35-55/Vehicle)
1 | CC[C@H](C)[C@H](NC(=O)[C@H](CCCCN)NC(=O)[C@H](Cc1c[nH]c2ccccc12)NC(=O)[C@H](CO)NC(=O)[C@@H]1CCCN1C(=O)[C@@H](NC(=O)[C@H](CCCNC(=N)N)NC(=O)[C@H](CC(C)C)NC(=O)[C@H](Cc1ccccc1)NC(=O)[C@H](Cc1ccc(O)cc1)NC(=O)[C@H](CCCNC(=N)N)NC(=O)[C@@H](NC(=O)[C@H](CS)NC(=O)[C@H](Cc1ccc(O)cc1)NC(=O)[C@@H]1CCCN1C(=O)[C@H](CS)NC(=O)[C@H](Cc1c[nH]cn1)NC(=O)[C@@H](N)CCCCN)C(C)C)C(C)C)C(=O)N[C@H](C(=O)N[C@@H](CC(C)C)C(=O)N[C@@H](Cc1ccccc1)C(=O)N[C@@H](CCCCN)C(=O)N[C@@H](CCCCN)C(=O)O)[C@@H](C)O [P4] | No mice died |  |  |  |  |  |  |  | 
2 | KCRCGWYRSPFSRVVHLYR [IMCY-0453] |  | 1 mice | statistically significantly improved | statistically significantly improved | statistically significantly improved | statistically significantly improved | statistically significant reduced NF-L levels |  | 
3 | KCRPYCGWYRSPFSRVVHLYR [IMCY-0455] |  | 1 mice | statistically significantly improved | statistically significantly improved | statistically significantly improved | statistically significantly improved | statistically significant reduced NF-L levels |  | 
4 | MEVGWYRSPFSRVVHLYRNGK [MOG35-55 peptide] |  |  |  |  |  |  |  | No mice died | 2 mice
